Where “and” joins values, the source holds several entries; their conditions need not be identical. Identical values can stand only once.
Legend:
P. aeruginosa = assay: Checkerboard assay (antibiotic potentiation); type: cell-based, Pseudomonas aeruginosa; details: for MICantibiotic: antibiotic alone
A. baumannii = assay: Checkerboard assay (antibiotic potentiation); type: cell-based, Acinetobacter baumannii; details: for MICantibiotic: antibiotic alone
E. coli = assay: Checkerboard assay (antibiotic potentiation); type: cell-based, Escherichia coli; details: for Interpretation: antibiotic + compound 1; for MICantibiotic + compound: antibiotic MIC with 8 µg/mL (5 µM) compound 1; for MICantibiotic: antibiotic alone; for Potentiation: of antibiotic by 8 µg/mL (5 µM) compound 1
K. pneumoniae = assay: Checkerboard assay (antibiotic potentiation); type: cell-based, Klebsiella pneumoniae; details: for Interpretation: antibiotic + compound 1; for MICantibiotic + compound: antibiotic MIC with 8 µg/mL (5 µM) compound 1; for MICantibiotic: antibiotic alone; for Potentiation: of antibiotic by 8 µg/mL (5 µM) compound 1
E. cloacae = assay: Checkerboard assay (antibiotic potentiation); type: cell-based, Enterobacter cloacae; details: E. cloacae 121887 (colistin-resistant)
E. faecalis ATCC 29212 = assay: Checkerboard assay (rifampicin potentiation); type: cell-based
Experimental: (§1) The interaction between the compounds and the antibiotics was evaluated using the fractional inhibitory concentration (FIC) index. FIC indices of ≤0.5 is synergistic, 0.5 < × ≤ 4 is additive, whereas >4 is antagonistic ([34]). […] .
(§2) The bacterial isolates were acquired from ATCC or the Canadian Ward Surveillance (CANWARD) study ([56]). CANWARD isolates were collected from infected patients admitted to participating medical centers across Canada.
(§3) The antibiotic and compounds were serially diluted 2-fold in CAMHB along the x- and y-axis, respectively, on a 96-well plate that was subsequently incubated with equal volumes of bacterial inoculum overnight at 37°C. Wells containing only media were used as negative controls, and wells containing only bacteria were used as positive controls. Synergy was measured by the FIC index, which is the summation of the individual FICs of the antibiotic and the compound. The FIC is calculated by dividing the MIC of one agent in the presence of another by the MIC of the agent alone. Turbidity was confirmed with a Molecular Devices (United States) EMax Plus microplate reader at a wavelength of 590 nm. The FBS studies were conducted by following a previously published protocol ([29], [50]). The FBS was inactivated by heating at 56°C for 30 min with constant swirling.

E. faecium ATCC 27270 = assay: Checkerboard assay (rifampicin potentiation); type: cell-based
Experimental: as §1, §2, §3

[1] = tested on: Methicillin-resistant S. aureus ATCC 22592; assay: Checkerboard assay (rifampicin potentiation); type: cell-based; details: MRSA ATCC 22592
Experimental: as §1, §2, §3

[2] = tested on: MDR Gram-negative bacteria clinical isolates; assay: Checkerboard assay, summary over strains; type: cell-based; details: of all 14 clinical isolates; number (%)
[3] = E. coli 94393 (colistin-resistant)
[4] = E. coli 94474 (colistin-resistant)
[5] = K. pneumoniae 113250 (colistin-resistant)
[6] = of rifampicin by 8 µg/mL (5 µM) compound 1
[7] = rifampicin MIC with 8 µg/mL (5 µM) compound 1

## CO[C@H]1/C=C/O[C@@]2(C)Oc3c(C)c(O)c4c(O)c(c(/C=N/N5CCN(C)CC5)c(O)c4c3C2=O)NC(=O)/C(C)=C\C=C\[C@H](C)[C@H](O)[C@@H](C)[C@@H](O)[C@@H](C)[C@H](OC(C)=O)[C@@H]1C [Rifampicin]
P. aeruginosa; P. aeruginosa 259-96916, antibiotic + compound 1
  Interpretation: Synergy (FIC indices of ≤0.5 is synergistic)
P. aeruginosa; P. aeruginosa 259-96916, antibiotic MIC with 8 µg/mL (5 µM) compound 1
  MICantibiotic + compound: 0.031 µg/mL
P. aeruginosa; P. aeruginosa 259-96916
  MICantibiotic: 16 µg/mL
P. aeruginosa; P. aeruginosa 259-96916, of antibiotic by 8 µg/mL (5 µM) compound 1
  Potentiation: ≥512-fold
P. aeruginosa; P. aeruginosa 262-101856, antibiotic + compound 1
  Interpretation: Synergy (FIC indices of ≤0.5 is synergistic)
P. aeruginosa; P. aeruginosa 262-101856, antibiotic MIC with 8 µg/mL (5 µM) compound 1
  MICantibiotic + compound: 2 µg/mL
P. aeruginosa; P. aeruginosa 262-101856
  MICantibiotic: 512 µg/mL
P. aeruginosa; P. aeruginosa 262-101856, of antibiotic by 8 µg/mL (5 µM) compound 1
  Potentiation: 256 fold
P. aeruginosa; P. aeruginosa 264-105354, antibiotic + compound 1
  Interpretation: Synergy (FIC indices of ≤0.5 is synergistic)
P. aeruginosa; P. aeruginosa 264-105354
  MICantibiotic: 32 µg/mL
P. aeruginosa; P. aeruginosa 264-105354, of antibiotic by 8 µg/mL (5 µM) compound 1
  Potentiation: ≥256-fold
P. aeruginosa; P. aeruginosa 101243 (colistin-resistant), antibiotic + compound 1
  Interpretation: Synergy (FIC indices of ≤0.5 is synergistic)
P. aeruginosa; P. aeruginosa 101243 (colistin-resistant), antibiotic MIC with 8 µg/mL (5 µM) compound 1
  MICantibiotic + compound: 2 µg/mL
P. aeruginosa; P. aeruginosa 101243 (colistin-resistant)
  MICantibiotic: 16 µg/mL
P. aeruginosa; P. aeruginosa 101243 (colistin-resistant), of antibiotic by 8 µg/mL (5 µM) compound 1
  Potentiation: 8 fold
P. aeruginosa; P. aeruginosa 114228 (colistin-resistant), antibiotic + compound 1
  Interpretation: Additive (0.5 < × ≤ 4 is additive)
P. aeruginosa; P. aeruginosa 114228 (colistin-resistant), antibiotic MIC with 8 µg/mL (5 µM) compound 1
  MICantibiotic + compound: 8 µg/mL
P. aeruginosa; P. aeruginosa 114228 (colistin-resistant)
  MICantibiotic: 16 µg/mL
P. aeruginosa; P. aeruginosa 114228 (colistin-resistant), of antibiotic by 8 µg/mL (5 µM) compound 1
  Potentiation: 2 fold
P. aeruginosa; P. aeruginosa PAO1, antibiotic + compound 1
  Interpretation: Synergy (FIC indices of ≤0.5 is synergistic)
P. aeruginosa; P. aeruginosa PAO1, antibiotic + compound 3
  Interpretation: Additive (0.5 < × ≤ 4 is additive)
P. aeruginosa; P. aeruginosa PAO1, antibiotic MIC with 8 µg/mL (5 µM) compound 1
  MICantibiotic + compound: 0.063 µg/mL
P. aeruginosa; P. aeruginosa PAO1, antibiotic MIC with 8 µg/mL (5 µM) compound 3
  MICantibiotic + compound: 32 µg/mL
P. aeruginosa; P. aeruginosa PAO1
  MICantibiotic: 16 µg/mL and 32 µg/mL
P. aeruginosa; P. aeruginosa PAO1, of antibiotic by 8 µg/mL (5 µM) compound 1
  Potentiation: ≥256-fold
P. aeruginosa; P. aeruginosa PAO1, of antibiotic by 8 µg/mL (5 µM) compound 3
  Potentiation: 1 fold
A. baumannii; A. baumannii 92247 (colistin-resistant), antibiotic + compound 1
  Interpretation: Synergy (FIC indices of ≤0.5 is synergistic)
A. baumannii; A. baumannii 92247 (colistin-resistant), antibiotic MIC with 4 µg/mL (2 µM) compound 1
  MICantibiotic + compound: 0.031 µg/mL
A. baumannii; A. baumannii 92247 (colistin-resistant)
  MICantibiotic: 4 µg/mL
A. baumannii; A. baumannii 92247 (colistin-resistant), of antibiotic by 4 µg/mL (2 µM) compound 1
  Potentiation: 128 fold
A. baumannii; A. baumannii 110193, antibiotic + compound 1
  Interpretation: Synergy (FIC indices of ≤0.5 is synergistic)
A. baumannii; A. baumannii 110193, antibiotic MIC with 4 µg/mL (2 µM) compound 1
  MICantibiotic + compound: 0.004 µg/mL
A. baumannii; A. baumannii 110193
  MICantibiotic: 4 µg/mL
A. baumannii; A. baumannii 110193, of antibiotic by 4 µg/mL (2 µM) compound 1
  Potentiation: ≥1024-fold
A. baumannii; A. baumannii AB027, antibiotic + compound 1
  Interpretation: Synergy (FIC indices of ≤0.5 is synergistic)
A. baumannii; A. baumannii AB027, antibiotic MIC with 4 µg/mL (2 µM) compound 1
  MICantibiotic + compound: 0.004 µg/mL
A. baumannii; A. baumannii AB027
  MICantibiotic: 2 µg/mL
A. baumannii; A. baumannii AB027, of antibiotic by 4 µg/mL (2 µM) compound 1
  Potentiation: ≥512-fold
A. baumannii; A. baumannii AB031, antibiotic + compound 1
  Interpretation: Synergy (FIC indices of ≤0.5 is synergistic)
A. baumannii; A. baumannii AB031, antibiotic MIC with 4 µg/mL (2 µM) compound 1
  MICantibiotic + compound: 0.004 µg/mL
A. baumannii; A. baumannii AB031
  MICantibiotic: 4 µg/mL
A. baumannii; A. baumannii AB031, of antibiotic by 4 µg/mL (2 µM) compound 1
  Potentiation: ≥1024-fold
A. baumannii; A. baumannii ATCC 17978, antibiotic + compound 1
  Interpretation: Synergy (FIC indices of ≤0.5 is synergistic)
A. baumannii; A. baumannii ATCC 17978, antibiotic + compound 3
  Interpretation: Additive (0.5 < × ≤ 4 is additive)
A. baumannii; A. baumannii ATCC 17978, antibiotic MIC with 8 µg/mL (5 µM) compound 3
  MICantibiotic + compound: 2 µg/mL
A. baumannii; A. baumannii ATCC 17978, antibiotic MIC with ¼ MIC (≤5 µM) of compound 1
  MICantibiotic + compound: 0.016 µg/mL
A. baumannii; A. baumannii ATCC 17978
  MICantibiotic: 8 µg/mL and 4 µg/mL
A. baumannii; A. baumannii ATCC 17978, of antibiotic by 8 µg/mL (5 µM) compound 3
  Potentiation: 2 fold
A. baumannii; A. baumannii ATCC 17978, of antibiotic by ¼ MIC (≤5 µM) of compound 1
  Potentiation: ≥512-fold
E. coli; [3]
  Interpretation: Synergy (FIC indices of ≤0.5 is synergistic)
  MICantibiotic + compound: 0.5 µg/mL
  MICantibiotic: >16 µg/mL
  Potentiation: ≥32-fold
E. coli; [4]
  Interpretation: Synergy (FIC indices of ≤0.5 is synergistic)
  MICantibiotic + compound: 0.5 µg/mL
  MICantibiotic: 8 µg/mL
  Potentiation: 16 fold
K. pneumoniae; [5]
  Interpretation: Synergy (FIC indices of ≤0.5 is synergistic)
  MICantibiotic + compound: 2 µg/mL
  MICantibiotic: 32 µg/mL
  Potentiation: 16 fold
K. pneumoniae; K. pneumoniae 116381
  Interpretation: Synergy (FIC indices of ≤0.5 is synergistic)
  MICantibiotic + compound: 0.25 µg/mL
  MICantibiotic: >256 µg/mL
  Potentiation: ≥2048-fold
E. cloacae; antibiotic + compound 1
  Interpretation: Synergy (FIC indices of ≤0.5 is synergistic)
E. cloacae; antibiotic MIC with 8 µg/mL (5 µM) compound 1
  MICantibiotic + compound: 1 µg/mL
E. cloacae; antibiotic alone
  MICantibiotic: >4 µg/mL
E. cloacae; of antibiotic by 8 µg/mL (5 µM) compound 1
  Potentiation: ≥8-fold
E. faecalis ATCC 29212; [6]
  Potentiation: 1 fold
E. faecalis ATCC 29212; rifampicin + compound 1
  Interpretation: Additive (0.5 < × ≤ 4 is additive)
E. faecalis ATCC 29212; [7]
  MICantibiotic + compound: 0.5 µg/mL
E. faecalis ATCC 29212; rifampicin alone
  MICantibiotic: 0.5 µg/mL
E. faecium ATCC 27270; [6]
  Potentiation: 1 fold
E. faecium ATCC 27270; rifampicin + compound 1
  Interpretation: Additive (0.5 < × ≤ 4 is additive)
E. faecium ATCC 27270; [7]
  MICantibiotic + compound: 0.031 µg/mL
E. faecium ATCC 27270; rifampicin alone
  MICantibiotic: 0.031 µg/mL
[1]; [6]
  Potentiation: 1 fold
[1]; rifampicin + compound 1
  Interpretation: Additive (0.5 < × ≤ 4 is additive)
[1]; [7]
  MICantibiotic + compound: 512 µg/mL
[1]; rifampicin alone
  MICantibiotic: 512 µg/mL
[2]
  clinical isolates in which the antibiotic was synergized by compound 1: 13 (93%) strains

Source: paper PMC12587545, “Noncytotoxic polymyxin derivatives enhance antibiotic action against multidrug-resistant Gram-negative bacteria” (Antimicrobial Agents and Chemotherapy, 2025)
